Experiments:
[1] = target: GDP-bound NRAS wild-type protein (Homo sapiens, UniProt P01111); experiment: Binding to NRAS by surface plasmon resonance (SPR), KD and KD ratio to KRAS; details: ratio of KD for GDP-bound NRAS wild-type protein to KD for KRAS
Method in brief: (§1)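 Compound binding is evaluated by SPR single-cycle kinetics, with concentrations added intermittently from low to high for 75 s each. Target surfaces carry GDP-loaded biotinylated Avi-RAS at about 100–300 RU, regenerated after each cycle; temperature 30°C. A 1:1 binding model gives KD.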

[2] = target: HRAS wild-type protein (Homo sapiens, UniProt P01112); experiment: Binding to HRAS by surface plasmon resonance (SPR), KD and KD ratio to KRAS; details: ratio of KD for HRAS wild-type protein to KD for KRAS
Method in brief: as §1

[3] = tested on: human lung cancer strain NCI-H441; type: cell-based
Method in brief: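 Proliferation was scored by […] measured after the reagent was added to cultures kept at 37°C in 5% carbon dioxide.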

Sequence of HRAS wild-type protein (P01112 whole entry): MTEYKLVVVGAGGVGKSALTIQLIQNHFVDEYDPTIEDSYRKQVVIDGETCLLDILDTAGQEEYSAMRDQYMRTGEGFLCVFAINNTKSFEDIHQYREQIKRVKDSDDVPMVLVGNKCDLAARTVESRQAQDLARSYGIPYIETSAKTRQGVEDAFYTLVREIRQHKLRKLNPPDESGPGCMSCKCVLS
Sequence of GDP-bound NRAS wild-type protein (P01111 whole entry): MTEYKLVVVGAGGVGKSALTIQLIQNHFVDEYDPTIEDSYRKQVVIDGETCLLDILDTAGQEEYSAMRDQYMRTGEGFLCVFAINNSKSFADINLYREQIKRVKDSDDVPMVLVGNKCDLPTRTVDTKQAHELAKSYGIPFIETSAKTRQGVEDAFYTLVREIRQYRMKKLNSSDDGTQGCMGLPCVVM

| SMILES | NRAS /KRAS [1] | HRAS /KRAS [2] | IC50 [3] |
| --- | --- | --- | --- |
| CCO[C@@H]1C[C@H]2C(=O)NC3(CCC3)C(=O)N(C)[C@@H](C3CCCC3)C(=O)N(C)[C@H](C(=O)N(C)C)CC(=O)N(C)[C@@H](Cc3ccc(Cl)cc3)C(=O)N[C@@H]([C@@H](C)CC)C(=O)N(C)CC(=O)N(C)[C@H]3CCCCCN(C3=O)[C@@H](Cc3ccc(C(F)(F)F)cc3)C(=O)N(C)CC(=O)N[C@@H](CCc3cc(F)c(C(F)(F)F)c(F)c3)C(=O)N2C1 [PP0940] | B (a compound having 3 or more and less than 10 is denoted as B) | C (A compound having a KD ratio of 0.1 or more and less than 3 is denoted as C) | 110 nM |
| CCO[C@@H]1C[C@H]2C(=O)NC3(CCC3)C(=O)N(C)[C@@H](C3CCCC3)C(=O)N(C)[C@H](C(=O)N(C)C)CC(=O)N(C)[C@@H](Cc3cccc(C)c3)C(=O)N[C@@H]([C@@H](C)CC)C(=O)N(C)CC(=O)N(C)[C@H]3CCCCCN(C3=O)[C@@H](Cc3ccc(C(F)(F)F)cc3)C(=O)N(C)CC(=O)N[C@@H](CCc3cc(F)c(C(F)(F)F)c(F)c3)C(=O)N2C1 [PP0942] | B (a compound having 3 or more and less than 10 is denoted as B) | B (a compound having 3 or more and less than 10 is denoted as B) | 66.1 nM |
| CCO[C@@H]1C[C@H]2C(=O)NC3(CCC3)C(=O)N(C)[C@@H](C3CCCC3)C(=O)N(C)[C@H](C(=O)N(C)C)CC(=O)N(C)[C@@H](Cc3ccc(C)cc3)C(=O)N[C@@H]([C@@H](C)CC)C(=O)N(C)CC(=O)N(C)[C@H]3CCCCCN(C3=O)[C@@H](Cc3ccc(C(F)(F)F)cc3)C(=O)N(C)CC(=O)N[C@@H](CCc3cc(F)c(C(F)(F)F)c(F)c3)C(=O)N2C1 [PP0943] | B (a compound having 3 or more and less than 10 is denoted as B) | B (a compound having 3 or more and less than 10 is denoted as B) | 154 nM |
| CCO[C@@H]1C[C@H]2C(=O)NC3(CCC3)C(=O)N(C)[C@@H](C3CCCC3)C(=O)N(CC)[C@H](C(=O)N3CCOCC3)CC(=O)N(C)[C@@H](CC)C(=O)N[C@@H]([C@@H](C)CC)C(=O)N(C)CC(=O)N(C)[C@H]3CCCCCN(C3=O)[C@@H](Cc3ccc(C(F)(F)F)cc3)C(=O)N(C)CC(=O)N[C@@H](CCc3cc(F)c(C(F)(F)F)c(F)c3)C(=O)N2C1 [PP0944] | A (a compound having 10 or more and less than 20 is denoted as A) | A (a compound having 10 or more and less than 20 is denoted as A) | 344 nM |
| CCO[C@@H]1C[C@H]2C(=O)NC3(CCC3)C(=O)N(C)[C@@H](C3CCCC3)C(=O)N(CC)[C@H](C(=O)N3CCOCC3)CC(=O)N(C)[C@@H](CO)C(=O)N[C@@H]([C@@H](C)CC)C(=O)N(C)CC(=O)N(C)[C@H]3CCCCCN(C3=O)[C@@H](Cc3ccc(C(F)(F)F)cc3)C(=O)N(C)CC(=O)N[C@@H](CCc3cc(F)c(C(F)(F)F)c(F)c3)C(=O)N2C1 [PP0945] | B (a compound having 3 or more and less than 10 is denoted as B) | A (a compound having 10 or more and less than 20 is denoted as A) | 987 nM |
| CCO[C@@H]1C[C@H]2C(=O)NC3(CCC3)C(=O)N(C)[C@@H](C3CCCC3)C(=O)N(CC)[C@H](C(=O)N3CCOCC3)CC(=O)N(C)[C@@H](COC)C(=O)N[C@@H]([C@@H](C)CC)C(=O)N(C)CC(=O)N(C)[C@H]3CCCCCN(C3=O)[C@@H](Cc3ccc(C(F)(F)F)cc3)C(=O)N(C)CC(=O)N[C@@H](CCc3cc(F)c(C(F)(F)F)c(F)c3)C(=O)N2C1 [PP0946] | A (a compound having 10 or more and less than 20 is denoted as A) | B (a compound having 3 or more and less than 10 is denoted as B) | 378 nM |
| CCO[C@@H]1C[C@H]2C(=O)NC3(CCC3)C(=O)N(C)[C@@H](C3CCCC3)C(=O)N(CC)[C@H](C(=O)N3CCOCC3)CC(=O)N(C)[C@@H](CCOC)C(=O)N[C@@H]([C@@H](C)CC)C(=O)N(C)CC(=O)N(C)[C@H]3CCCCCN(C3=O)[C@@H](Cc3ccc(C(F)(F)F)cc3)C(=O)N(C)CC(=O)N[C@@H](CCc3cc(F)c(C(F)(F)F)c(F)c3)C(=O)N2C1 [PP0947] | A (a compound having 10 or more and less than 20 is denoted as A) | A (a compound having 10 or more and less than 20 is denoted as A) | 597 nM |
| CCO[C@@H]1C[C@H]2C(=O)NC3(CCC3)C(=O)N(C)[C@@H](C3CCCC3)C(=O)N(CC)[C@H](C(=O)N3CCOCC3)CC(=O)N(C)[C@@H](Cc3ccccc3)C(=O)N[C@@H]([C@@H](C)CC)C(=O)N(C)CC(=O)N(C)[C@H]3CCCCCN(C3=O)[C@@H](Cc3ccc(C(F)(F)F)cc3)C(=O)N(C)CC(=O)N[C@@H](CCc3cc(F)c(C(F)(F)F)c(F)c3)C(=O)N2C1 [PP0950] | A (a compound having 10 or more and less than 20 is denoted as A) | B (a compound having 3 or more and less than 10 is denoted as B) | 958 nM |
| CCO[C@@H]1C[C@H]2C(=O)NC3(CCC3)C(=O)N(C)[C@@H](C3CCCC3)C(=O)N(CC)[C@H](C(=O)N3CCOCC3)CC(=O)N(C)[C@@H](CCc3ccccc3)C(=O)N[C@@H]([C@@H](C)CC)C(=O)N(C)CC(=O)N(C)[C@H]3CCCCCN(C3=O)[C@@H](Cc3ccc(C(F)(F)F)cc3)C(=O)N(C)CC(=O)N[C@@H](CCc3cc(F)c(C(F)(F)F)c(F)c3)C(=O)N2C1 [PP0953] | A (a compound having 10 or more and less than 20 is denoted as A) | A (a compound having 10 or more and less than 20 is denoted as A) | 1610 nM |
| CC[C@H](C)[C@@H]1NC(=O)[C@H](CC(C)C)N(C)C(=O)C[C@@H](C(=O)N2CCOCC2)N(CC)C(=O)[C@H](C2CCCC2)N(C)C(=O)C2(CCC2)NC(=O)[C@@H]2[C@H](O)CCN2C(=O)[C@H](CCc2cc(F)c(C(F)(F)F)c(F)c2)NC(=O)CN(C)C(=O)[C@H](Cc2ccc(C(F)(F)F)cc2)N2CCCCC[C@@H](C2=O)N(C)C(=O)CN(C)C1=O [PP0955] | A (a compound having 10 or more and less than 20 is denoted as A) | A (a compound having 10 or more and less than 20 is denoted as A) | 6480 nM |
| CCO[C@@H]1C[C@H]2C(=O)NC3(CC=CC3)C(=O)N(C)[C@@H](C3CCCC3)C(=O)N(CC)[C@H](C(=O)N3CCOCC3)CC(=O)N(C)[C@@H](CC(C)C)C(=O)N[C@@H]([C@@H](C)CC)C(=O)N(C)CC(=O)N(C)[C@H]3CCCCCN(C3=O)[C@@H](Cc3ccc(C(F)(F)F)cc3)C(=O)N(C)CC(=O)N[C@@H](CCc3cc(F)c(C(F)(F)F)c(F)c3)C(=O)N2C1 [PP0956] | A (a compound having 10 or more and less than 20 is denoted as A) | A (a compound having 10 or more and less than 20 is denoted as A) | 690 nM |
| CC[C@H](C)[C@@H]1NC(=O)[C@H](COC)N(C)C(=O)C[C@@H](C(=O)N2CCOCC2)N(C)C(=O)[C@H](C2CCCC2)N(C)C(=O)C2(CCCC2)NC(=O)[C@@H]2CCCN2C(=O)[C@H](CCc2ccc(C(F)(F)F)c(Cl)c2)NC(=O)CN(C)C(=O)[C@H](Cc2ccc(F)cc2)N2CCCCC[C@@H](C2=O)N(C)C(=O)CN(C)C1=O [PP0960] | B (a compound having 3 or more and less than 10 is denoted as B) | B (a compound having 3 or more and less than 10 is denoted as B) | 101 nM |

— patent EP4603105A1, “PHARMACEUTICAL COMPOSITION CONTAINING CYCLIC COMPOUND HAVING SELECTIVE KRAS INHIBITORY EFFECT AGAINST HRAS AND NRAS” (CHUGAI SEIYAKU KABUSHIKI KAISHA, priority 2022, dated 2024)
